Data as given in ChEMBL document CHEMBL1122110, “Use of (S)-(trifloxymethyl)oxirane in the synthesis of a chiral beta-adrenoceptor antagonist, (R)- and (S)-9-[[3-(tert-butylamino)-2-hydroxypropyl]oximino]fluorene” (J Med Chem, 1982).
pIC50: −log10 of the molar value.

What was measured:
[1] = target: Beta-2 adrenergic receptor (Bos taurus, UniProt Q28044); experiment: Compound was tested for inhibition of [3H]dihydroalprenolol radioligand binding to Beta-2 adrenergic receptor in calf lung membranes.; type: cell membranes
[2] = target: Beta-1 adrenergic receptor (Cavia porcellus, UniProt B0FL73); experiment: Compound was tested for its Beta-1 adrenergic receptor antagonistic activity on guinea pig atria; type: functional; details: read-out: pA2 (converted)
[3] = target: Beta-2 adrenergic receptor (Cavia porcellus, UniProt Q8K4Z4); experiment: Beta-2 adrenergic receptor antagonistic activity on guinea pig tracheal chains; type: functional; details: read-out: pA2 (converted)
Beta-2 adrenergic receptor (Cavia porcellus, UniProt Q8K4Z4), sequence (Q8K4Z4 whole entry): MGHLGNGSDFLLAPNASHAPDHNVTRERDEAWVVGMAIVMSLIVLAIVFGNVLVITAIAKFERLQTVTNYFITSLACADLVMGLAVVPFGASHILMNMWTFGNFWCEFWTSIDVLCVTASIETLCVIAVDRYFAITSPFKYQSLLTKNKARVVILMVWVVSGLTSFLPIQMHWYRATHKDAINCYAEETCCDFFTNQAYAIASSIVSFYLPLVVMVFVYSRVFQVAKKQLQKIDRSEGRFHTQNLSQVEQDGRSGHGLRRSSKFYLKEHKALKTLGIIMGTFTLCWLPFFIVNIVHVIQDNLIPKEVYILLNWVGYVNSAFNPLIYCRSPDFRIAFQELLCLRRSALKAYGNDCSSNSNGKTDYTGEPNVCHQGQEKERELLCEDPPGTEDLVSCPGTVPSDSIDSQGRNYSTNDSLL

Beta-2 adrenergic receptor (Bos taurus, UniProt Q28044), sequence (Q28044 whole entry): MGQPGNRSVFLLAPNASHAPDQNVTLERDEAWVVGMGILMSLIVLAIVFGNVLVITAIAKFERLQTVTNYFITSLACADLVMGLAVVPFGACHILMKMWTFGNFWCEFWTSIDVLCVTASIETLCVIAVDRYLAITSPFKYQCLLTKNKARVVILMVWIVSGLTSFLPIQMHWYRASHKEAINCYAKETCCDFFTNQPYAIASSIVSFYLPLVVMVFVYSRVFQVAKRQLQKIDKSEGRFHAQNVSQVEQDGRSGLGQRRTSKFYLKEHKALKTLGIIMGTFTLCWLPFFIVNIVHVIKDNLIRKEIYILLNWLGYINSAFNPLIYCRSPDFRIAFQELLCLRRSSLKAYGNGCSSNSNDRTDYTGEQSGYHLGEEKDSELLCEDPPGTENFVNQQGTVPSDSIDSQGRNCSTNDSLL
Beta-1 adrenergic receptor, sequence (B0FL73 whole entry): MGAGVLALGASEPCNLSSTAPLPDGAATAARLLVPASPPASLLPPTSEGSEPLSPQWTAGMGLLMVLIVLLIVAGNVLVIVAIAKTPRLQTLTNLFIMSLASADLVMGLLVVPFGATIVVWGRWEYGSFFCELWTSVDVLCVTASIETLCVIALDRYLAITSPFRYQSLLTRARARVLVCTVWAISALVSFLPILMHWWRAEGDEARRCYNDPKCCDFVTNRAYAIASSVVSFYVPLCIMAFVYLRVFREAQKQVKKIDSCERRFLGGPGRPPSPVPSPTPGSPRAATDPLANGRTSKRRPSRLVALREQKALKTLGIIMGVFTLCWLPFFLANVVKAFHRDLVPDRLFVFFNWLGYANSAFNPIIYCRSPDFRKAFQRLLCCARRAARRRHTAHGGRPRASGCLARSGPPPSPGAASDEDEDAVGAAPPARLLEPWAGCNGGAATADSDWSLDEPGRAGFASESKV

Structure (SMILES) | pIC50 [1] | Kb [2] | Kb [3]
Cc1ccc(OCC(O)CNC(C)C)c2c1CCC2 (stereo unspecified) | 7.75 | 97.7 nM | 31.6 nM
CCC(C)(C)NC[C@H](O)CON=C1c2ccccc2-c2ccccc21 |  | 16.6 nM | 74.1 nM
CC(C)(C)NCC(O)CON=C1c2ccccc2-c2ccccc21 (stereo unspecified) | 7.61 | 33.9 nM | 66.1 nM
CCC(C)(C)NCC(O)CON=C1c2ccccc2-c2ccccc21 (stereo unspecified) |  | 34.7 nM | 85.1 nM
CC(C)(C)NC[C@H](O)CON=C1c2ccccc2-c2ccccc21 | 7.51 | 37.2 nM | 17 nM
CC(C)(C)NC[C@@H](O)CON=C1c2ccccc2-c2ccccc21 | 7.70 | 13.2 nM | 18.2 nM
